These results are taken from ChEMBL document CHEMBL3352328, “Synthesis and biological evaluation of a new series of N-acyldiamines as potential antibacterial and antifungal agents” (2014).

The subject of assay [1] is Staphylococcus epidermidis. Put plainly: Antimicrobial activity against Staphylococcus epidermidis ATCC 12228 by broth dilution method. In kind it is functional.
Assay [2] deals with Candida tropicalis. Briefly: Antifungal activity against Candida tropicalis ATCC 750 by broth microdilution method. In kind it is functional. Background: Dilution methods test growth across graded concentrations, often in twofold steps.
Assay [3] relates to Pseudomonas aeruginosa. Put plainly: Antimicrobial activity against Pseudomonas aeruginosa ATCC 27853 by broth dilution method. It is filed as functional.
Assay [4] concerns Candida parapsilosis. Briefly: Antifungal activity against Candida parapsilosis ATCC 22019 by broth microdilution method. It is filed as functional. Particulars: Lodderomyces parapsilosis.
Assay [5] relates to Escherichia coli. Put plainly: Antimicrobial activity against Escherichia coli ATCC 11229 by broth dilution method. In kind it is functional.
For assay [6], the system named is Nakaseomyces glabratus. Briefly: Antifungal activity against Candida glabrata ATCC 90030 by broth microdilution method. In kind it is functional.
Assay [7] concerns Staphylococcus aureus. Briefly: Antimicrobial activity against Staphylococcus aureus ATCC 29213 by broth dilution method. It is filed as functional.
In assay [8] the test system is Candida albicans. Briefly: Antifungal activity against Candida albicans ATCC 18804 by broth microdilution method. It is filed as functional.
The subject of assay [9] is Staphylococcus aureus. Put plainly: Bacteriostatic activity against Staphylococcus aureus ATCC 29213 after 24 hrs. It is filed as functional, organism-based.
In assay [10] the test system is Staphylococcus epidermidis. Briefly: Bactericidal activity against Staphylococcus epidermidis ATCC 12228 after 24 hrs. Particulars: ATCC 12228, 24 h. In kind it is functional.
For assay [11], the system named is Pseudomonas aeruginosa. Put plainly: Bacteriostatic activity against Pseudomonas aeruginosa ATCC 27853 after 24 hrs. In kind it is functional, organism-based.
For assay [12], the system named is Escherichia coli. Put plainly: Bacteriostatic activity against Escherichia coli ATCC 11229 after 24 hrs. It is filed as functional, organism-based.
The subject of assay [13] is Staphylococcus aureus. Briefly: Bactericidal activity against methicillin-resistant Staphylococcus aureus clinical isolate 17 after 24 hrs. It is filed as functional. To be noted: isolate 17, 24 h.
The test system of assay [14] is Staphylococcus aureus. Put plainly: Bactericidal activity against methicillin-resistant Staphylococcus aureus clinical isolate 9 after 24 hrs. In kind it is functional. Particulars: isolate 9, 24 h.
Assay [15] has as its system Staphylococcus aureus. Briefly: Bactericidal activity against methicillin-resistant Staphylococcus aureus clinical isolate 4 after 24 hrs. To be noted: isolate 4, 24 h. It is filed as functional.
The test system of assay [16] is Staphylococcus aureus. Put plainly: Bactericidal activity against methicillin-resistant Staphylococcus aureus clinical isolate 7 after 24 hrs. In kind it is functional. To be noted: isolate 7, 24 h.
Assay [17] concerns Staphylococcus aureus. Put plainly: Bactericidal activity against methicillin-resistant Staphylococcus aureus clinical isolate 20 after 24 hrs. In kind it is functional. Particulars: isolate 20, 24 h.
In assay [18] the test system is Staphylococcus aureus. Briefly: Bactericidal activity against methicillin-resistant Staphylococcus aureus clinical isolate 21 after 24 hrs. It is filed as functional. Particulars: isolate 21, 24 h.
Assay [19] has as its system Staphylococcus aureus. Put plainly: Bactericidal activity against methicillin-resistant Staphylococcus aureus clinical isolate 14 after 24 hrs. It is filed as functional. Particulars: isolate 14, 24 h.
The subject of assay [20] is Staphylococcus aureus. Put plainly: Bactericidal activity against methicillin-resistant Staphylococcus aureus clinical isolate 10 after 24 hrs. In kind it is functional. To be noted: isolate 10, 24 h.
The subject of assay [21] is Staphylococcus aureus. Put plainly: Bactericidal activity against methicillin-resistant Staphylococcus aureus clinical isolate 16 after 24 hrs. It is filed as functional. To be noted: isolate 16, 24 h.
For assay [22], the system named is Staphylococcus aureus. Briefly: Bactericidal activity against methicillin-resistant Staphylococcus aureus clinical isolate after 24 hrs. It is filed as functional.
Assay [23] concerns Staphylococcus aureus. Put plainly: Bactericidal activity against methicillin-resistant Staphylococcus aureus clinical isolate 18 after 24 hrs. It is filed as functional. To be noted: isolate 18, 24 h.
Assay [24] deals with Staphylococcus aureus. Put plainly: Bactericidal activity against methicillin-resistant Staphylococcus aureus clinical isolate 11 after 24 hrs. To be noted: isolate 11, 24 h. It is filed as functional.
In assay [25] the test system is Staphylococcus aureus. Briefly: Bactericidal activity against methicillin-resistant Staphylococcus aureus clinical isolate 2 after 24 hrs. It is filed as functional. To be noted: isolate 2, 24 h.
Assay [26] concerns Staphylococcus aureus. Put plainly: Bactericidal activity against methicillin-resistant Staphylococcus aureus clinical isolate 3 after 24 hrs. It is filed as functional. To be noted: isolate 3, 24 h.
Assay [27] relates to Staphylococcus aureus. Briefly: Bactericidal activity against methicillin-resistant Staphylococcus aureus clinical isolate 19 after 24 hrs. It is filed as functional. Particulars: isolate 19, 24 h.
For assay [28], the system named is Staphylococcus aureus. Briefly: Bactericidal activity against methicillin-resistant Staphylococcus aureus clinical isolate 15 after 24 hrs. In kind it is functional. To be noted: isolate 15, 24 h.
Assay [29] concerns Staphylococcus aureus. Briefly: Bactericidal activity against methicillin-resistant Staphylococcus aureus clinical isolate 5 after 24 hrs. In kind it is functional. To be noted: isolate 5, 24 h.
The subject of assay [30] is Staphylococcus aureus. Put plainly: Bactericidal activity against methicillin-resistant Staphylococcus aureus clinical isolate 13 after 24 hrs. It is filed as functional. Particulars: isolate 13, 24 h.
For assay [31], the system named is Staphylococcus aureus. Put plainly: Bactericidal activity against methicillin-resistant Staphylococcus aureus clinical isolate 1 after 24 hrs. Particulars: isolate 1, 24 h. In kind it is functional.
Assay [32] deals with Staphylococcus aureus. Briefly: Bactericidal activity against methicillin-resistant Staphylococcus aureus clinical isolate 6 after 24 hrs. In kind it is functional. To be noted: isolate 6, 24 h.
The test system of assay [33] is Staphylococcus aureus. Briefly: Bactericidal activity against methicillin-resistant Staphylococcus aureus clinical isolate 8 after 24 hrs. To be noted: isolate 8, 24 h. In kind it is functional.
Assay [34] has as its system Staphylococcus aureus. Briefly: Bactericidal activity against methicillin-resistant Staphylococcus aureus clinical isolate 12 after 24 hrs. It is filed as functional. Particulars: isolate 12, 24 h.
In assay [35] the test system is Escherichia coli. Put plainly: Bactericidal activity against Escherichia coli ATCC 11229 after 24 hrs. To be noted: ATCC 11229, 24 h. In kind it is functional.
Assay [36] concerns Staphylococcus aureus. Briefly: Bactericidal activity against Staphylococcus aureus ATCC 29213 after 24 hrs. It is filed as functional. To be noted: ATCC 29213, 24 h.
Assay [37] relates to Pseudomonas aeruginosa. Put plainly: Bactericidal activity against Pseudomonas aeruginosa ATCC 27853 after 24 hrs. It is filed as functional. Particulars: ATCC 27853, 24 h.

Each structure is given as a SMILES string. In brackets after ≈: the same amount, converted by molar mass. Activity calls are given as the source filed them.

A word on the MIC: it is the least concentration at which growth counts as inhibited. Turning to `CCCCCCCCCCCCCCCC(=O)NCCN`, the MIC is more than 1020 µg/mL in assay [1]; 16 µg/mL (≈ 53.6 µM) in assay [2]; more than 1020 µg/mL in [3]; 4 µg/mL (≈ 13.4 µM) in [4]; more than 1020 µg/mL in assay [5]; 8 µg/mL (≈ 26.8 µM) in assay [6]. In addition, the MIC in assay [7] was more than 1020 µg/mL; in [8], 4 µg/mL (≈ 13.4 µM).

Broadly, the MBC is the smallest concentration meeting the test's criterion for killing. Higher therefore signals weaker bactericidal potency. As to `CCCCCCCC/C=C\CCCCCCCC(=O)NCCCCN`, the MIC in [1] is 4 µg/mL (≈ 11.3 µM); in [2], 4 µg/mL (≈ 11.3 µM); in [3], more than 1020 µg/mL; in assay [4], 1 µg/mL (≈ 2.84 µM); in assay [5], 8 µg/mL (≈ 22.7 µM); in assay [6] it was 2 µg/mL (≈ 5.67 µM). Besides, the MIC in assay [7] is 16 µg/mL (≈ 45.4 µM); in assay [8] it was 2 µg/mL (≈ 5.67 µM). The outcome in [9], in [11] and in assay [12] was Active. This compound also gave an MBC in [10] of 128 µg/mL (≈ 363 µM).

By MIC90 is commonly meant the lowest concentration that inhibits either 90% of growth or 90% of the strains tested, depending on the study. High values mean lower susceptibility, low ones higher susceptibility. `O=C(N[C@H](CO)[C@H](O)c1ccc([N+](=O)[O-])cc1)C(Cl)Cl` [CHLORAMPHENICOL]: the MIC in assay [1] and in assay [3] was 32 µg/mL (≈ 99 µM) throughout. For the same compound, the MBC in assay [13] worked out at 4 µg/mL (≈ 12.4 µM); in assay [14], 8 µg/mL (≈ 24.8 µM); in assay [15] it was 8 µg/mL (≈ 24.8 µM); in [16], 64 µg/mL (≈ 198 µM); in [17], 4 µg/mL (≈ 12.4 µM); in assay [10], 128 µg/mL (≈ 396 µM). Besides, the MBC in assay [18] worked out at 8 µg/mL (≈ 24.8 µM); in [19], 64 µg/mL (≈ 198 µM); in assay [20], 64 µg/mL (≈ 198 µM); in assay [21], 32 µg/mL (≈ 99 µM); in [23] it was 8 µg/mL (≈ 24.8 µM); in assay [24], 64 µg/mL (≈ 198 µM). For the same compound, the MBC in assay [25] came out at 4 µg/mL (≈ 12.4 µM); in [26] it was 4 µg/mL (≈ 12.4 µM); in [27], 128 µg/mL (≈ 396 µM); in [28], 32 µg/mL (≈ 99 µM); in [29], 4 µg/mL (≈ 12.4 µM); in [30], 64 µg/mL (≈ 198 µM). Besides, the MBC in [31] was determined as 64 µg/mL (≈ 198 µM); in assay [32], 8 µg/mL (≈ 24.8 µM); in [33] it was 64 µg/mL (≈ 198 µM); in assay [34], 64 µg/mL (≈ 198 µM). In addition, the result in assay [9], in assay [11] and in assay [12] was Active. Further, the MIC90 in assay [22] is 32 µg/mL (≈ 99 µM).

Regarding `CCCCCCCCCCCCCCCC(=O)NCCCCN`, the MIC in assay [1] was 16 µg/mL (≈ 49 µM); in assay [2], 64 µg/mL (≈ 196 µM); in assay [3], more than 1020 µg/mL; in assay [4], 128 µg/mL (≈ 392 µM); in assay [5], 1020 µg/mL (≈ 3140 µM); in [6], 32 µg/mL (≈ 98 µM). In addition, the values for the MIC in assay [7] and in assay [8] were 512 µg/mL (≈ 1570 µM) and 8 µg/mL (≈ 24.5 µM), respectively. Moreover, the outcome in assay [9] was Active. Further, the MBC was found to be 128 µg/mL (≈ 392 µM) in assay [10] and 1020 µg/mL (≈ 3140 µM) in assay [35].

For the compound `CCCCCCCCCCCC(=O)NCCCCN`, the MIC in assay [1] was 16 µg/mL (≈ 59.2 µM); in [2], 128 µg/mL (≈ 473 µM); in assay [3], 32 µg/mL (≈ 118 µM); in assay [4] it was 256 µg/mL (≈ 947 µM); in assay [5] it was 64 µg/mL (≈ 237 µM); in [6], 1020 µg/mL (≈ 3790 µM). Further, the MIC in assay [7] is 64 µg/mL (≈ 237 µM); in assay [8], 256 µg/mL (≈ 947 µM). Also, the MBC in assay [10] is 16 µg/mL (≈ 59.2 µM); in assay [36], 512 µg/mL (≈ 1890 µM); in assay [35], 64 µg/mL (≈ 237 µM); in [37], 32 µg/mL (≈ 118 µM).

On to `CCCCCCCCCCCCCC(=O)NCCCCN`, for which the MIC in assay [1] stood at 16 µg/mL (≈ 53.6 µM); in assay [2], 64 µg/mL (≈ 214 µM); in assay [3] it was 1020 µg/mL (≈ 3430 µM); in assay [4], 128 µg/mL (≈ 429 µM); in assay [5] it was 256 µg/mL (≈ 858 µM); in [6], 32 µg/mL (≈ 107 µM). For the same compound, the minimal inhibitory concentration (MIC) in assay [7] and in assay [8] was 16 µg/mL (≈ 53.6 µM) throughout. For the same compound, the MBC in assay [10] stood at 32 µg/mL (≈ 107 µM); in [36] it was 1020 µg/mL (≈ 3430 µM); in assay [35], 1020 µg/mL (≈ 3430 µM); in assay [37], 1020 µg/mL (≈ 3430 µM).
